Results: paper PMC12390684 (Viruses, 2025)

Biological target: IN-GCN2 interaction (6xHis-IN / GST-GCN2) (UniProt P04585+Q9P2K8)
Assay: biochemical
Assay type: binding, HIV-1 IN; human GCN2
Details: screen; for IN-GCN2 interaction (%): single dose 100 µM, single replicate, residual AlphaLISA signal normalized to DMSO control

Chain of IN-GCN2 interaction (6xHis-IN / GST-GCN2) (Q9P2K8 192-1024, other chains not shown): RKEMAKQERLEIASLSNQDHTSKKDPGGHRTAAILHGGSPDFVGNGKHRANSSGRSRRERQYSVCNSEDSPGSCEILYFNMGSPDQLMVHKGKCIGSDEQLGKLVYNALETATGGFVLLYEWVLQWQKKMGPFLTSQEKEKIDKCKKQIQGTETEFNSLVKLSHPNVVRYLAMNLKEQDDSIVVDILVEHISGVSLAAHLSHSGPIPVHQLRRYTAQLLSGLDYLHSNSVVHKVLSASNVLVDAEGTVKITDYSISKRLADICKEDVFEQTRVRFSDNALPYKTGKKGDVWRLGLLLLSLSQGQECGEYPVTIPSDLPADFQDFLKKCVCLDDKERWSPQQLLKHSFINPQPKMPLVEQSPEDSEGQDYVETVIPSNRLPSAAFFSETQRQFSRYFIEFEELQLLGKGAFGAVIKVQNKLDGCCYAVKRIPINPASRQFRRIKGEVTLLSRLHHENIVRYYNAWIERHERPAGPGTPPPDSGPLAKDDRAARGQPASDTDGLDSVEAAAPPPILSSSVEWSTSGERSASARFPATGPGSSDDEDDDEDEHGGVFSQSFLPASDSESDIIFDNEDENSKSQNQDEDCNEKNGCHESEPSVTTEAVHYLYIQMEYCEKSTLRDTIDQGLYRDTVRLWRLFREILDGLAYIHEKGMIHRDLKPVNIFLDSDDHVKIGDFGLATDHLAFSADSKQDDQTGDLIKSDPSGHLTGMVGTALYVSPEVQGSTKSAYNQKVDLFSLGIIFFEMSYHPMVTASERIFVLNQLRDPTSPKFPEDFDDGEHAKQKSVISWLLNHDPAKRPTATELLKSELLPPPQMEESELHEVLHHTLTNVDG

Compound	IN-GCN2 interaction (%)	further results
C[C@@H]1C[C@H](C)C[C@H](C)[C@@H](O)CC(=O)O[C@H]([C@@H]2CCC[C@H]2C(=O)O)C/C=C/C=C(/C#N)[C@H](O)[C@@H](C)C1 [NSC216128]	89.16	
COc1c2c(c(CC=C(C)C)c3oc(=O)c(-c4ccc(O)cc4)c(O)c13)OC(C)(C)C=C2 [NSC307981]	101.87	
O=c1oc2cc(O)ccc2c2oc3cc(O)ccc3c12 [NSC22842]	123.61	
COc1cc2c3c(c1O)-c1cc(O)ccc1CC3N(C)CC2 (centres unmarked) [NSC785186]	59.88	
C=Cc1cc(OC)c2c(c1)c(=O)oc1c2cc(OC)c2c(O)ccc(C3OC(C)C(O)C(C)(O)C3O)c21 (centres unmarked) [NSC354844]	85.63	
COc1ccc2c(c1O)-c1c3c(cc4c1[C@H](C2)N(C)CC4)OCO3 [NSC785188]	77.54	
C=C1C(=O)OC2CC(C)C3(O)CCC(=O)C3(C)CC12 (centres unmarked) [NSC361902]	90.19	
CC[C@@H](O)C[C@H]1CCC[C@@]2(C[C@@H]3OC(=O)/C=C/[C@@](C)(O)[C@@H](O)[C@H](C)[C@@H](O)[C@H](OC4CCC(N(C)C)C(C)O4)[C@@H](O)[C@](C)(O)CCCCC/C=C/[C@@H]4CC(C)(C)O[C@@]4(O)C[C@H](O2)[C@H]3C)O1 (some centres unmarked) [NSC76627]	52.50	
O=C(O)CC1OCC=C2CN3CCC45c6ccccc6NC4C1C2CC35 (centres unmarked) [NSC121860]	104.59	
CO[C@H]1[C@@H](O)[C@@H](C)O[C@@H](OC2CCC3(C)C(CCC4C3C(O)CC3(C)C(C5=CC(=O)OC5)CCC43O)C2)[C@@H]1O (some centres unmarked) [NSC123977]	127.41	
CC(=O)OC1C2(CC3N4C(=O)C5(CO)SSC4(CC31O)C(=O)N5C)OC(C)C(C)(C)C2=O (centres unmarked) [NSC294408]	104.55	
COC1=C2CC(C)CC(OC)C(O)C(C)/C=C(\C)C(OC(N)=O)C(OC)/C=C\C=C(/C)C(=O)NC(=C(/C=N/N3CCOCC3)C1=O)C2=O (centres unmarked) [NSC255112]	78.82	
COc1ccc2c(c1O)-c1c(OC)c(OC)cc3c1[C@H](C2)N(C)CC3 [NSC32979]	119.47	
C=C1CCO[C@]2([C@@H](O)[C@@](C)(O)CO)NC(=O)[C@@]1(O)NC2=O [NSC180516]	114.16	
C[C@H](CCC(=O)O)[C@H]1CC[C@H]2[C@@H]3CC[C@@H]4C[C@H](O)CC[C@]4(C)[C@H]3C[C@H](O)[C@]12C [NSC8797]	85.28	
COc1cc2c(cc1OC)C(O)C(O)(CO)C(C(=O)O)C2c1cc(OC)c(OC)c(OC)c1 (centres unmarked) [NSC50131]	78.06	
CC[C@H]1CN2CCc3cc(OC)c(OC)cc3[C@@H]2C[C@@H]1C[C@H]1NCCc2cc(O)c(OC)cc21 [NSC32944]	81.67	
C1CCC(NC2CCCCC2)CC1.COC1C(OC(=O)/C=C/C=C/C=C/C=C/C(=O)O)CCC2(CO2)C1C1(C)OC1CC=C(C)C (centres unmarked) [NSC58368]	95.05	
C=C1C(=O)OC2CC1C(O)C/C(C)=C/CC/C(C)=C/C(O)CC2C (centres unmarked) [NSC210236]	107.44	
CCN1C[C@]2(COC)[C@H](O)C[C@H](OC)[C@@]34[C@@H]5C[C@@]6(O)[C@H](OC(=O)c7ccccc7)[C@@H]5[C@@](OC(C)=O)([C@@H]([C@H](OC)[C@H]23)[C@@H]14)[C@@H](O)[C@@H]6OC [NSC56464]	148.00	

Compound	IN-GCN2 interaction (%)	further results
CC[C@H](C)c1occ2c(O)c(C(=O)O)c(=O)cc-2c1C [NSC114344]	113.54	
COc1cc([C@@H]2c3cc4c(cc3[C@@H](O[C@@H]3O[C@@H]5CO[C@@H](c6cccs6)O[C@H]5[C@H](O)[C@H]3O)[C@H]3COC(=O)[C@H]23)OCO4)cc(OC)c1O [NSC122819]	96.83	
CC(=O)OC1C(OC(C)=O)C2C(C)CC3OC(=O)C(C)C3CC2(C)C1OC(C)=O (centres unmarked) [NSC266071]	100.86	
CC(C)=CCC1=C(O)c2ccccc2C(=O)C1=O [NSC11905]	107.31	
C=C1C(=O)[C@]23[C@H](O)[C@H]1CC[C@H]2[C@@]12CO[C@]3(O)[C@@H](O)[C@@H]1C(C)(C)CC[C@@H]2O [NSC250682]	99.31	
NC(=O)NC1NC(=O)NC1=O (centres unmarked) [NSC7606]	88.72	
CC(C)c1ccc(O)c(=O)cc1 [NSC43338]		IN-GCN2 interaction (%) (listed as 43338): 100.42%
CC(C)=CCCC(C)C1=C(O)C(=O)C(C)=CC1=O (centres unmarked) [NSC365793]	50.48	
CC[C@]1(O)C[C@H]2CN(CCc3c([nH]c4ccccc34)[C@@](C(=O)OC)(c3cc4c(cc3OC)N(C=O)[C@H]3[C@@](O)(C(=O)OC)[C@H](OC(C)=O)[C@]5(CC)C=CCN6CC[C@]43[C@@H]65)C2)C1 [NSC67574]	113.01	
COc1ccc2c(c1OC)CN1CCc3cc4c(cc3C1C2)OCO4 (centres unmarked) [NSC36351]	108.61	effect on IN-GCN2 interaction in the screen, in words (100 µM, inactive = within 10% of the DMSO control): inactive
Cc1ccc(S(=O)(=O)NNC(=O)c2cc(C)c(C)cc2N)cc1 [NSC107453]	88.25	
O=C([O-])c1nc(=O)[nH]c(=O)[nH]1.[K+] [NSC28841]	85.56	
C[C@@H]1O[C@@H](O[C@@H]2C=C3CC[C@@H]4[C@H](CC[C@]5(C)[C@@H](c6ccc(=O)oc6)CC[C@]45O)[C@@]3(C)CC2)[C@H](O)[C@H](O)[C@H]1O[C@@H]1O[C@H](CO)[C@@H](O)[C@H](O)[C@H]1O [NSC7525]	99.88	
CC[C@H](C)C(=O)O[C@H]1CCC=C2C=C[C@H](C)[C@H](CC[C@@H]3C[C@@H](O)CC(=O)O3)[C@H]21 [NSC281245]	54.75	
COC(=O)[C@@]12OC[C@]34[C@H]([C@@H](O)[C@@H]1O)[C@@]1(C)CC(=O)C(O)=C(C)[C@@H]1C[C@H]3OC(=O)[C@H](OC(=O)C=C(C)C)[C@@H]24 [NSC172924]	122.74	
C=C1C(=O)OCC2C(C(=O)O)=CC3C(C)C(C)=CC123 (centres unmarked) [NSC145150]	111.51	
COc1c2occc2cc2ccc(=O)oc12 [NSC45923]	121.17	
CN1CCc2cc3c(c4c2[C@H]1Cc1ccccc1-4)OCO3 [NSC785164]	64.36	
CC[C@@]1(O)C(=O)OCc2c1cc1n(c2=O)Cc2cc3ccccc3nc2-1 [NSC100880]		IN-GCN2 interaction (%) (listed as 100880): 95.24%
O=c1oc2c(O)c(O)cc3c(=O)oc4c(O)c(O)cc1c4c23 [NSC407286]	49.11	

Compound	IN-GCN2 interaction (%)	further results
CC(=O)CCCCn1c(=O)c2c(ncn2C)n(C)c1=O [NSC637086]	87.24	
COc1cc2c(cc1O)[C@@H](Cc1ccc(Oc3cc(C[C@H]4c5cc(O)c(OC)cc5CCN4C)ccc3OC)cc1)N(C)CC2 [NSC785183]	47.22	
O=C(O)c1cc(O)c(O)c(O)c1 [NSC20103]	83.04	
COC(=O)[C@H]1[C@H](O)[C@H](C)[C@@H](O)[C@](C)(O)/C=C(\C)C2=C3C(=C(C)C(=O)c4c(O)c(c(C)c(OC(C)=O)c43)NC(=O)/C(C)=C/C=C\[C@](C)(O)[C@@H](O)[C@@H](C)[C@H]1O)OCO2 [NSC156219]	73.43	
CC[C@@]1(O)C(=O)OCc2c1cc1n(c2=O)Cc2cc3ccccc3nc2-1 [NSC94600]		IN-GCN2 interaction (%) (listed as 94600): 48.96%
C=C1C(=O)O[C@@H]2C[C@@]3(C)CCC[C@H](C)C3=C[C@H]12 [NSC302289]	117.43	
CC1(C)CCC[C@]2(C)C3=C(CC[C@@H]12)C(=O)OC3 [NSC375294]	100.67	
CO[C@H]1C[C@@H]2\C=C(C)/C=C/C=C\C(=O)N[C@H](c3ccccc3)C/C=C/CC[C@H](O)CC(=O)C2=C1O [NSC343256]	61.66	
CC1=CC2=C(C=O)C(=O)[C@](C)(O)[C@@H](O)C2=CO1 [NSC159632]	82.72	
COc1c2occc2c(OC)c2c(=O)cc(C)oc12 [NSC8519]	129.74	
COc1cc2c3c(c4ccc(OC)c(OC)c4c2cc1OC)CN1CCC[C@@H]1C3 [NSC60387]	110.26	
COC(=O)CC[C@@H](C)[C@H]1CC[C@@]2(C)[C@@H]3C(=O)C[C@H]4C(C)(C)[C@@H](OC(C)=O)CC[C@]4(C)[C@H]3C(=O)C[C@]12C [NSC34202]	97.47	
CC(O)C1/C=C/C=C/C(=O)OC2CC3OC4C5OC5(C)C(O)CC4(COC(=O)C(O)C(C)CCO1)C2(C)C31CO1 (centres unmarked) [NSC327993]	115.91	
Nc1ncnc2c1ncn2[C@@H]1O[C@H](CO)[C@@H](O)[C@H]1O [NSC7652]	51.17	
COc1c(O)ccc2c1-c1c3c(cc4c1[C@H](C2)N(C)CC4)OCO3 [NSC785147]		IN-GCN2 interaction (%) (listed as 785147): 67.05%
COc1cc2c(cc1O)C[C@H]1c3c(c(OC)c4c(c3-2)OCO4)CCN1C [NSC785179]	39.12	
COc1cccc2c1C1COC3C4CC(C(=O)O)C(C(C2)N13)N4C.O=C(O)CC(O)(CC(=O)O)C(=O)O (centres unmarked) [NSC601422]	152.09	
COc1cc2c3c(c1O)-c1cc(O)ccc1C[C@H]3N(C)CC2 [NSC785167]	75.29	
